Laboratory results from patent US20220089575A1, “FARNESOID X RECEPTOR AGONISTS AND USES THEREOF” (Metacrine, Inc., priority 2017, published 2022).
pEC50: −log10 of the molar value.

Biological target: T1, hFXR (Homo sapiens, UniProt Q96RI1)
T1 construct: expressed in transfected cells; host or cells: CV-1 cells
T1 sequence (Q96RI1 1-486): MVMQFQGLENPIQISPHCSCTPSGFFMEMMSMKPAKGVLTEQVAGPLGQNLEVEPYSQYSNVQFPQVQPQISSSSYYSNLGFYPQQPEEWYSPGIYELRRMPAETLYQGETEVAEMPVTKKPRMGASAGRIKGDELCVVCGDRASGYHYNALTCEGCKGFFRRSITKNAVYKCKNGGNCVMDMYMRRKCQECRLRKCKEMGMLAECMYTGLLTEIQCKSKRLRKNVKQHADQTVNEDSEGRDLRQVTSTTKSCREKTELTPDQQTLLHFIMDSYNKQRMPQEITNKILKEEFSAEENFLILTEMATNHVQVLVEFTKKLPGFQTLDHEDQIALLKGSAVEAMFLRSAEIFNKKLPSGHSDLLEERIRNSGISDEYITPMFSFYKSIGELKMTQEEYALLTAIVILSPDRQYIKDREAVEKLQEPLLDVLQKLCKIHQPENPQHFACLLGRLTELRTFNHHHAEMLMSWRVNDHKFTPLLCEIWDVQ
T1 sequence (P19793 1-462 partner): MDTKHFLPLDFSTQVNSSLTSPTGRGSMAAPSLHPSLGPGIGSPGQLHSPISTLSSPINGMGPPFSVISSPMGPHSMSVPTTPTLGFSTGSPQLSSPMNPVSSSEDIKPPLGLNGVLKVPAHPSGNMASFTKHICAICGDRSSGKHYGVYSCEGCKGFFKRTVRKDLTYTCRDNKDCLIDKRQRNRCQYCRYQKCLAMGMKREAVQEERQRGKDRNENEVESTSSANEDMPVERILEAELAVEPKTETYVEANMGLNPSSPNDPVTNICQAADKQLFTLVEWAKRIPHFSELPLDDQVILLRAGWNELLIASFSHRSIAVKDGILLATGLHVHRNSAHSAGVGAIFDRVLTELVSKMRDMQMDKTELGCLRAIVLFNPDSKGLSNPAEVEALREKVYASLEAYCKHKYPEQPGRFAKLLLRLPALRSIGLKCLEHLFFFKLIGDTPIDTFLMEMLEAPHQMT
Test: In Vitro FXR Assay (TK): TK-ECRE-luc reporter in transfected CV-1 cells
Type: cell-based
Settings: 18 hrs, luminescence, maximum efficacy of <25% of the Fexarmine control classified as '+'
How it was run: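 Reporter transactivation by hFXR was measured in CV-1 cells carrying hRXR and a TK-ECRE-luc construct, with compound treatment for 18 h before lysis and luminescence detection.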

Compound | pEC50
CCNC(=O)O[C@H]1CC[C@H](C(=O)N(C[C@H]2CC[C@H](c3ccc(OC)c(C#N)c3)CC2)c2cc(-c3cnn(C(C)C)c3)ccn2)CC1 [Compound 5, trans-4-(((trans-4-(3-Cyano-4-methoxyphenyl)cyclohexyl)methyl)(4-(1-isopropyl-1H-pyrazol-4-yl)pyridin-2-yl)carbamoyl)cyclohexyl ethylcarbamate] | ≥ 6.60
CNC(=O)O[C@H]1CC[C@H](C(=O)N(C[C@H]2CC[C@H](c3ccc(OC)c(C)c3)CC2)c2cc(-c3cnc(C4CC4)s3)ccn2)CC1 [Compound 5.01, trans-4-((4-(2-Cyclopropylthiazol-5-yl)pyridin-2-yl)((trans-4-(4-methoxy-3-methylphenyl)cyclohexyl)methyl)carbamoyl)cyclohexyl methylcarbamate] | ≥ 6.60
CNC(=O)O[C@H]1CC[C@H](C(=O)N(C[C@H]2CC[C@H](c3ccc(OC)c(C)c3)CC2)c2cc(-c3cnc(C(C)C)s3)ccn2)CC1 [Compound 5.02, trans-4-((4-(2-Isopropylthiazol-5-yl)pyridin-2-yl)((trans-4-(4-methoxy-3-methylphenyl)cyclohexyl)methyl)carbamoyl)cyclohexyl methylcarbamate] | ≥ 6.60
CNC(=O)O[C@H]1CC[C@H](C(=O)N(C[C@H]2CC[C@H](c3ccc(OC)c(C)n3)CC2)c2cc(-c3cnc(C4CC4)s3)ccn2)CC1 [Compound 5.03, trans-4-((4-(2-Cyclopropylthiazol-5-yl)pyridin-2-yl)((trans-4-(5-methoxy-6-methylpyridin-2-yl)cyclohexyl)methyl)carbamoyl)cyclohexyl methylcarbamate] | ≥ 6.60
CNC(=O)O[C@H]1CC[C@H](C(=O)N(C[C@H]2CC[C@H](c3ccc(OC)c(C)n3)CC2)c2cc(-c3cnc(C(C)C)s3)ccn2)CC1 [Compound 5.04, trans-4-((4-(2-Isopropylthiazol-5-yl)pyridin-2-yl)((trans-4-(5-methoxy-6-methylpyridin-2-yl)cyclohexyl)methyl)carbamoyl)cyclohexyl methylcarbamate] | ≥ 6.60
CNC(=O)O[C@H]1CC[C@H](C(=O)N(C[C@H]2CC[C@H](c3ccc(OC)c(C#N)c3)CC2)c2cc(-c3cnc(C4CC4)s3)ccn2)CC1 [Compound 5.05, trans-4-(((trans-4-(3-Cyano-4-methoxyphenyl)cyclohexyl)methyl)(4-(2-cyclopropylthiazol-5-yl)pyridin-2-yl)carbamoyl)cyclohexyl methylcarbamate] | ≥ 6.60
CNC(=O)O[C@H]1CC[C@H](C(=O)N(C[C@H]2CC[C@H](c3ccc(OC)c(C#N)n3)CC2)c2cccc(-c3cnc(C4CC4)s3)c2)CC1 [Compound 5.06, trans-4-(((trans-4-(6-Cyano-5-methoxypyridin-2-yl)cyclohexyl)methyl)(3-(2-cyclopropylthiazol-5-yl)phenyl)carbamoyl)cyclohexyl methylcarbamate] | ≥ 6.60
CNC(=O)O[C@H]1CC[C@H](C(=O)N(C[C@H]2CC[C@H](c3ccc(OC)c(C#N)n3)CC2)c2cc(-c3cnc(C4CC4)s3)ccn2)CC1 [Compound 5.07, trans-4-(((trans-4-(6-Cyano-5-methoxypyridin-2-yl)cyclohexyl)methyl)(4-(2-cyclopropylthiazol-5-yl)pyridin-2-yl)carbamoyl)cyclohexyl methylcarbamate] | ≥ 6.60
CNC(=O)O[C@H]1CC[C@H](C(=O)N(C[C@H]2CC[C@H](c3ccc(OC)c(C)n3)CC2)c2cccc(-c3cnc(C(C)C)s3)c2)CC1 [Compound 5.08, trans-4-((3-(2-Isopropylthiazol-5-yl)phenyl)((trans-4-(5-methoxy-6-methylpyridin-2-yl)cyclohexyl)methyl)carbamoyl)cyclohexyl methylcarbamate] | ≥ 6.60
CNC(=O)O[C@H]1CC[C@H](C(=O)N(C[C@H]2CC[C@H](c3ccc(N(C)C)nc3)CC2)c2cccc(-c3cnn(C4CC4)c3)c2)CC1 [Compound 5.09, trans-4-((3-(1-Cyclopropyl-1H-pyrazol-4-yl)phenyl)((trans-4-(6-(dimethylamino)pyridin-3-yl)cyclohexyl)methyl)carbamoyl)cyclohexyl methylcarbamate] | ≥ 6.60
CNC(=O)O[C@H]1CC[C@H](C(=O)N(C[C@H]2CC[C@H](c3ccc(OC)c(C)c3)CC2)c2cccc(-c3cnn(C(C)C)c3)c2)CC1 [Compound 5.10, trans-4-((3-(1-Isopropyl-1H-pyrazol-4-yl)phenyl)((trans-4-(4-methoxy-3-methylphenyl)cyclohexyl)methyl)carbamoyl)cyclohexyl methylcarbamate] | ≥ 6.60
CNC(=O)O[C@H]1CC[C@H](C(=O)N(C[C@H]2CC[C@H](c3cnc(OC)c(Cl)c3)CC2)c2cccc(-c3cnn(C4CC4)c3)c2)CC1 [Compound 5.11, trans-4-(((trans-4-(5-Chloro-6-methoxypyridin-3-yl)cyclohexyl)methyl)(3-(1-cyclopropyl-1H-pyrazol-4-yl)phenyl)carbamoyl)cyclohexyl methylcarbamate] | ≥ 6.60
CNC(=O)O[C@H]1CC[C@H](C(=O)N(C[C@H]2CC[C@H](c3ccc(OC)c(C)c3)CC2)c2cc(-c3cnn(C(C)C)c3)ccn2)CC1 [Compound 5.12, trans-4-((4-(1-Isopropyl-1H-pyrazol-4-yl)pyridin-2-yl)((trans-4-(4-methoxy-3-methylphenyl)cyclohexyl)methyl)carbamoyl)cyclohexyl methylcarbamate] | ≥ 6.60
CNC(=O)O[C@H]1CC[C@H](C(=O)N(C[C@H]2CC[C@H](c3ccc(OC)c(C)n3)CC2)c2cc(-c3cnn(C4CC4)c3)ccn2)CC1 [Compound 5.13, trans-4-((4-(1-Cyclopropyl-1H-pyrazol-4-yl)pyridin-2-yl)((trans-4-(5-methoxy-6-methylpyridin-2-yl)cyclohexyl)methyl)carbamoyl)cyclohexyl methylcarbamate] | ≥ 6.60
CNC(=O)O[C@H]1CC[C@H](C(=O)N(C[C@H]2CC[C@H](c3ccc(OC)c(C#N)c3)CC2)c2cccc(-c3cnn(C4CC4)c3)c2)CC1 [Compound 5.14, trans-4-(((trans-4-(3-Cyano-4-methoxyphenyl)cyclohexyl)methyl)(3-(1-cyclopropyl-1H-pyrazol-4-yl)phenyl)carbamoyl)cyclohexyl methylcarbamate] | ≥ 6.60
CNC(=O)O[C@H]1CC[C@H](C(=O)N(C[C@H]2CC[C@H](c3ccc(OC)c(C#N)c3)CC2)c2cccc(-c3cnn(C(C)C)c3)c2)CC1 [Compound 5.15, trans-4-(((trans-4-(3-Cyano-4-methoxyphenyl)cyclohexyl)methyl)(3-(1-Isopropyl-1H-pyrazol-4-yl)phenyl)carbamoyl)cyclohexyl methylcarbamate] | ≥ 6.60
CNC(=O)O[C@H]1CC[C@H](C(=O)N(C[C@H]2CC[C@H](c3cnc(OC)c(C)c3)CC2)c2cccc(-c3cnn(C4CC4)c3)c2)CC1 [Compound 5.16, trans-4-((3-(1-Cyclopropyl-1H-pyrazol-4-yl)phenyl)((trans-4-(6-methoxy-5-methylpyridin-3-yl)cyclohexyl)methyl)carbamoyl)cyclohexyl methylcarbamate] | ≥ 6.60
CNC(=O)O[C@H]1CC[C@H](C(=O)N(C[C@H]2CC[C@H](c3ccc(OC)c(C#N)c3)CC2)c2cc(-c3cnn(C4CC4)c3)ccn2)CC1 [Compound 5.17, trans-4-(((trans-4-(3-Cyano-4-methoxyphenyl)cyclohexyl)methyl)(4-(1-cyclopropyl-1H-pyrazol-4-yl)pyridin-2-yl)carbamoyl)cyclohexyl methylcarbamate] | ≥ 6.60
CNC(=O)O[C@H]1CC[C@H](C(=O)N(C[C@H]2CC[C@H](c3ccc(OC)c(C#N)c3)CC2)c2cc(-c3cnn(C(C)C)c3)ccn2)CC1 [Compound 5.18, trans-4-(((trans-4-(3-Cyano-4-methoxyphenyl)cyclohexyl)methyl)(4-(1-isopropyl-1H-pyrazol-4-yl)pyridin-2-yl)carbamoyl)cyclohexyl methylcarbamate] | ≥ 6.60
CNC(=O)O[C@H]1CC[C@@H](C(=O)N(CC2CCC(c3ccc(OC)c(C#N)c3)CC2)c2cc(-c3cnn(C(C)C)c3)ccn2)CC1 (stereo partly drawn) [Compound 5.19, cis-4-(((4-(3-Cyano-4-methoxyphenyl)cyclohexyl)methyl)(4-(1-isopropyl-1H-pyrazol-4-yl)pyridin-2-yl)carbamoyl)cyclohexyl methylcarbamate] | ≥ 6.60
CNC(=O)O[C@H]1CC[C@H](C(=O)N(C[C@H]2CC[C@H](c3ccc(OC)c(C)n3)CC2)c2cccc(-c3cnn(C(C)(C)C)c3)c2)CC1 [Compound 5.20, trans-4-((3-(1-(tert-Butyl)-1H-pyrazol-4-yl)phenyl)((trans-4-(5-methoxy-6-methylpyridin-2-yl)cyclohexyl)methyl)carbamoyl)cyclohexyl methylcarbamate] | ≥ 6.60
